Where a SMILES comes first, the peptide text is derived from it.
Biological target: HLA B*0801 (Homo sapiens, UniProt P01889, A93T/A95T/D138N/E176V/E187T/K202T/Q94N/R180D/S35A/V36M/Y33D/Y91F)
Assay: biochemical
Format: binding

Compound	IC50
CSCC[C@H](N)C(=O)N[C@@H](Cc1ccc(O)cc1)C(=O)N[C@@H](CCCCN)C(=O)N[C@@H](CO)C(=O)N[C@@H](CCCNC(=N)N)C(=O)N[C@H](C(=O)N[C@@H](CCC(=O)O)C(=O)N[C@@H](CCCNC(=N)N)C(=O)N[C@H](C(=O)O)C(C)C)C(C)C [3102.0607] (H-MYKSRVERV-OH)	47 nM
CC(C)C[C@H](NC(=O)[C@@H]1CCCN1C(=O)[C@H](CCCNC(=N)N)NC(=O)[C@H](Cc1ccccc1)NC(=O)[C@H](CCCCN)NC(=O)[C@H](CCCCN)NC(=O)[C@H](CCCNC(=N)N)NC(=O)[C@H](Cc1ccc(O)cc1)NC(=O)[C@@H](N)Cc1ccccc1)C(=O)O [3102.0608] (H-FYRKKFRPL-OH)	0.088 nM
CC[C@H](C)[C@H](NC(=O)[C@H](CCSC)NC(=O)[C@H](CC(C)C)NC(=O)[C@@H]1CCCN1C(=O)[C@@H](N)CCCNC(=N)N)C(=O)N[C@@H](Cc1ccccc1)C(=O)N[C@@H](CCSC)C(=O)N[C@@H](CO)C(=O)NCC(=O)O [3102.0609] (H-RPLMIFMSG-OH)	12 nM
CC(C)C[C@H](NC(=O)[C@H](CCCNC(=N)N)NC(=O)[C@@H](NC(=O)[C@H](Cc1ccccc1)NC(=O)[C@H](Cc1c[nH]cn1)NC(=O)CNC(=O)[C@H](CCCCN)NC(=O)[C@H](CC(N)=O)NC(=O)[C@@H](N)Cc1ccccc1)[C@@H](C)O)C(=O)O [3102.0610] (H-FNKGHFTRL-OH)	16 nM
CSCC[C@H](NC(=O)[C@@H](NC(=O)[C@H](CS)NC(=O)[C@H](CCCCN)NC(=O)[C@H](CCC(N)=O)NC(=O)[C@H](CC(C)C)NC(=O)[C@H](CCCCN)NC(=O)[C@H](CC(C)C)NC(=O)[C@@H](N)CCSC)C(C)C)C(=O)O [3102.0611] (H-MLKLQKCVM-OH)	9.3 nM
CC[C@H](C)[C@H](NC(=O)[C@H](CO)NC(=O)[C@H](Cc1ccccc1)NC(=O)[C@H](CC(C)C)NC(=O)[C@@H](NC(=O)[C@H](CCCNC(=N)N)NC(=O)[C@H](CC(C)C)NC(=O)[C@@H](N)Cc1c[nH]cn1)C(C)C)C(=O)N[C@@H](Cc1ccccc1)C(=O)O [3102.0612] (H-HLRVLFSIF-OH)	4.7 nM
CC(C)C[C@H](NC(=O)[C@@H]1CCCN1C(=O)[C@@H](N)CO)C(=O)N[C@@H](CO)C(=O)N[C@@H](CCCCN)C(=O)N[C@@H](CS)C(=O)N[C@H](C(=O)N[C@H](C(=O)N[C@H](C(=O)O)C(C)C)C(C)C)C(C)C [3102.0613] (H-SPLSKCVVV-OH)	31 nM
CC[C@H](C)[C@H](NC(=O)[C@H](CO)NC(=O)[C@@H](NC(=O)[C@@H](NC(=O)[C@H](Cc1c[nH]c2ccccc12)NC(=O)[C@H](CCCCN)NC(=O)[C@H](CCSC)NC(=O)[C@@H](N)CCSC)[C@@H](C)CC)[C@@H](C)CC)C(=O)N[C@@H](CC(C)C)C(=O)O [3102.0616] (H-MMKWIISIL-OH)	1.3 nM
CC(C)C[C@H](NC(=O)[C@H](CO)NC(=O)CNC(=O)[C@H](Cc1ccc(O)cc1)NC(=O)[C@H](CCCCN)NC(=O)[C@H](Cc1c[nH]cn1)NC(=O)[C@H](CCCCN)NC(=O)[C@H](CC(C)C)NC(=O)[C@@H](N)Cc1ccccc1)C(=O)O [3102.0617] (H-FLKHKYGSL-OH)	0.14 nM
CC[C@H](C)[C@H](NC(=O)[C@@H](NC(=O)[C@H](CC(C)C)NC(=O)[C@H](Cc1ccccc1)NC(=O)[C@H](Cc1c[nH]cn1)NC(=O)[C@@H](NC(=O)[C@@H](NC(=O)[C@H](CCCCN)NC(=O)[C@@H](N)CCC(=O)O)[C@@H](C)CC)[C@@H](C)CC)[C@@H](C)O)C(=O)O [3102.0618] (H-EKIIHFLTI-OH)	5 nM
CSCC[C@H](NC(=O)[C@H](CS)NC(=O)[C@H](CCCNC(=N)N)NC(=O)[C@H](Cc1ccc(O)cc1)NC(=O)[C@H](CCCCN)NC(=O)[C@H](CCCCN)NC(=O)[C@@H](N)CC(N)=O)C(=O)N[C@@H](C)C(=O)N[C@@H](CC(C)C)C(=O)O [3102.0619] (H-NKKYRCMAL-OH)	1.9 nM
CC[C@H](C)[C@H](NC(=O)[C@@H](N)CS)C(=O)N[C@H](C(=O)N[C@@H](CC(N)=O)C(=O)N[C@@H](CCCCN)C(=O)N[C@@H](Cc1ccccc1)C(=O)N[C@@H](CCSC)C(=O)N[C@@H](CO)C(=O)N[C@@H](Cc1ccccc1)C(=O)O)C(C)C [3102.0620] (H-CIVNKFMSF-OH)	60 nM
CC[C@H](C)[C@H](NC(=O)[C@H](CCCNC(=N)N)NC(=O)[C@@H](N)CO)C(=O)N[C@@H](CO)C(=O)N[C@@H](CCCNC(=N)N)C(=O)N[C@@H](Cc1ccccc1)C(=O)N[C@@H](C)C(=O)N[C@@H](CC(N)=O)C(=O)N[C@@H](CC(C)C)C(=O)O [3102.0622] (H-SRISRFANL-OH)	20 nM
CC[C@H](C)[C@H](NC(=O)[C@@H]1CCCN1C(=O)[C@@H](N)CCC(=O)O)C(=O)N[C@@H](CCCCN)C(=O)N[C@@H](Cc1c[nH]cn1)C(=O)N[C@@H](CCCCN)C(=O)N[C@@H](Cc1ccc(O)cc1)C(=O)N1CCC[C@H]1C(=O)N[C@@H](CC(C)C)C(=O)O [3102.0624] (H-EPIKHKYPL-OH)	1.3 nM
C[C@H](NC(=O)[C@H](Cc1ccccc1)NC(=O)[C@H](CO)NC(=O)[C@H](CS)NC(=O)[C@H](CCCNC(=N)N)NC(=O)[C@H](Cc1ccc(O)cc1)NC(=O)[C@H](CCCNC(=N)N)NC(=O)[C@H](CCCNC(=N)N)NC(=O)[C@@H](N)CO)C(=O)O [3102.0625] (H-SRRYRCSFA-OH)	52 nM
CC[C@H](C)[C@H](NC(=O)[C@H](CO)NC(=O)[C@H](Cc1c[nH]cn1)NC(=O)[C@H](Cc1ccc(O)cc1)NC(=O)[C@H](CCCNC(=N)N)NC(=O)[C@@H]1CCCN1C(=O)[C@@H](N)Cc1ccccc1)C(=O)N[C@@H](CCC(=O)O)C(=O)N[C@@H](CC(C)C)C(=O)O [3102.0626] (H-FPRYHSIEL-OH)	0.49 nM
CC[C@H](C)[C@H](NC(=O)[C@H](Cc1ccc(O)cc1)NC(=O)[C@@H](NC(=O)[C@@H](N)CO)C(C)C)C(=O)N[C@@H](CCCNC(=N)N)C(=O)N1CCC[C@H]1C(=O)N[C@H](C(=O)N[C@@H](CO)C(=O)N[C@@H](CC(C)C)C(=O)O)[C@@H](C)O [3102.0627] (H-SVYIRPTSL-OH)	11 nM
CC[C@H](C)[C@H](NC(=O)[C@@H](N)CO)C(=O)N[C@@H](CC(N)=O)C(=O)N[C@H](C(=O)N[C@@H](CCCCN)C(=O)N[C@@H](Cc1c[nH]cn1)C(=O)N[C@H](C(=O)N[C@@H](CO)C(=O)N[C@H](C(=O)O)C(C)C)[C@@H](C)O)C(C)C [3102.0630] (H-SINVKHTSV-OH)	13 nM
CC[C@H](C)[C@H](NC(=O)[C@H](CCSC)NC(=O)[C@@H](NC(=O)[C@H](CCCCN)NC(=O)[C@H](CC(C)C)NC(=O)[C@@H](N)CO)[C@@H](C)CC)C(=O)N[C@@H](CCC(N)=O)C(=O)N[C@@H](CO)C(=O)N[C@@H](CCSC)C(=O)O [3102.0631] (H-SLKIMIQSM-OH)	2.5 nM
CC[C@H](C)[C@H](NC(=O)[C@H](Cc1c[nH]cn1)NC(=O)[C@H](Cc1ccccc1)NC(=O)[C@H](CC(C)C)NC(=O)[C@H](CC(N)=O)NC(=O)[C@@H]1CCCN1C(=O)[C@H](CC(C)C)NC(=O)[C@@H](N)CCCNC(=N)N)C(=O)N[C@@H](CC(C)C)C(=O)O [3102.0632] (H-RLPNLFHIL-OH)	69 nM
CC(C)C[C@H](NC(=O)[C@H](CO)NC(=O)[C@@H]1CCCN1C(=O)[C@H](CCCNC(=N)N)NC(=O)[C@H](CCCCN)NC(=O)[C@H](CO)NC(=O)[C@H](CC(C)C)NC(=O)[C@H](CC(C)C)NC(=O)[C@@H](N)C(C)C)C(=O)O [3102.0634] (H-VLLSKRPSL-OH)	78 nM
CC[C@H](C)[C@H](NC(=O)[C@H](CCCCN)NC(=O)[C@H](CC(C)C)NC(=O)[C@@H](NC(=O)[C@H](Cc1c[nH]cn1)NC(=O)[C@H](CCCCN)NC(=O)[C@H](CCCNC(=N)N)NC(=O)[C@H](CC(C)C)NC(=O)[C@@H](N)CC(C)C)[C@@H](C)O)C(=O)O [3102.0636] (H-LLRKHTLKI-OH)	21 nM
CC(C)C[C@H](NC(=O)[C@H](CCCNC(=N)N)NC(=O)[C@H](CCCCN)NC(=O)[C@H](CC(N)=O)NC(=O)[C@H](CCCNC(=N)N)NC(=O)[C@H](CC(C)C)NC(=O)[C@H](CCCNC(=N)N)NC(=O)[C@H](CCCNC(=N)N)NC(=O)[C@@H](N)Cc1c[nH]cn1)C(=O)O [3102.0641] (H-HRRLRNKRL-OH)	28 nM
CC[C@H](C)[C@H](NC(=O)[C@H](CC(N)=O)NC(=O)[C@H](CCCCN)NC(=O)[C@H](Cc1ccccc1)NC(=O)[C@H](CCCNC(=N)N)NC(=O)[C@H](CC(N)=O)NC(=O)[C@H](CCSC)NC(=O)[C@H](CC(C)C)NC(=O)[C@@H](N)Cc1ccc(O)cc1)C(=O)O [3102.0642] (H-YLMNRFKNI-OH)	1.3 nM
CC(C)C[C@H](NC(=O)[C@@H](NC(=O)[C@H](CC(C)C)NC(=O)[C@H](CCCCN)NC(=O)[C@H](CCCNC(=N)N)NC(=O)[C@H](Cc1ccccc1)NC(=O)[C@H](Cc1ccccc1)NC(=O)[C@@H]1CCCN1C(=O)[C@@H](N)Cc1ccc(O)cc1)C(C)C)C(=O)O [3102.0643] (H-YPFFRKLVL-OH)	5.9 nM
CSCC[C@H](N)C(=O)N[C@@H](CC(C)C)C(=O)N[C@@H](CC(C)C)C(=O)N[C@@H](CS)C(=O)N[C@@H](Cc1c[nH]cn1)C(=O)N[C@@H](CCCCN)C(=O)N1CCC[C@H]1C(=O)N[C@H](C(=O)N[C@@H](CC(C)C)C(=O)O)[C@@H](C)O [3102.0644] (H-MLLCHKPTL-OH)	19 nM
CC[C@H](C)[C@H](NC(=O)[C@H](CCC(=O)O)NC(=O)[C@H](CCCNC(=N)N)NC(=O)[C@H](CC(C)C)NC(=O)[C@@H](N)CO)C(=O)N[C@@H](CO)C(=O)N[C@@H](CC(N)=O)C(=O)N[C@H](C(=O)N[C@H](C(=O)O)C(C)C)[C@@H](C)CC [3102.0645] (H-SLREISNIV-OH)	10 nM
CC(C)C[C@H](NC(=O)[C@H](CO)NC(=O)[C@@H](NC(=O)[C@H](CC(C)C)NC(=O)[C@H](CO)NC(=O)[C@H](CCC(N)=O)NC(=O)[C@H](CCCCN)NC(=O)[C@H](CC(N)=O)NC(=O)[C@@H](N)Cc1ccc(O)cc1)C(C)C)C(=O)O [3102.0646] (H-YNKQSLVSL-OH)	30 nM
CC[C@H](C)[C@H](NC(=O)[C@@H](N)CS)C(=O)N[C@@H](CCCCN)C(=O)N[C@@H](CO)C(=O)N[C@@H](Cc1c[nH]cn1)C(=O)N[C@@H](CO)C(=O)N[C@H](C(=O)N[C@@H](CO)C(=O)N[C@@H](CC(C)C)C(=O)O)C(C)C [3102.0647] (H-CIKSHSVSL-OH)	2.3 nM
CC[C@H](C)[C@H](NC(=O)[C@@H](N)CC(N)=O)C(=O)N[C@@H](CCSC)C(=O)N1CCC[C@H]1C(=O)N[C@@H](CC(C)C)C(=O)N[C@@H](Cc1ccccc1)C(=O)N1CCC[C@H]1C(=O)N[C@H](C(=O)N[C@@H](Cc1ccccc1)C(=O)O)[C@@H](C)O [3102.0648] (H-NIMPLFPTF-OH)	48 nM

From article PMC2248166, “Quantitative peptide binding motifs for 19 human and mouse MHC class I molecules derived using positional scanning combinatorial peptide libraries” (Immunome Research, 2008)
